Laboratory results from article PMC12703428, “Development of Granzyme A Turn‐ON Fluorescent Activity‐Based Probes” (Chembiochem, 2025).

Legend:
hGzmA = biological target: T1, hGzmA (Homo sapiens, UniProt P12544); experiment: Granzyme A cleavage assay (fluorogenic substrate); format: biochemical; details: hGzmA 50 nM, inhibitor 200 nM, substrate 100 μM, 50 mM Tris, 150 mM NaCl, 0.01% Triton X-100 pH 8, 15 h, 37 °C, Ex/Em 380/460 nm, mean ± SD n = 3
T1 construct: active, mature form; purchased Enzo Life Sciences ALX-201-118-C010
T1 sequence (P12544 29-262): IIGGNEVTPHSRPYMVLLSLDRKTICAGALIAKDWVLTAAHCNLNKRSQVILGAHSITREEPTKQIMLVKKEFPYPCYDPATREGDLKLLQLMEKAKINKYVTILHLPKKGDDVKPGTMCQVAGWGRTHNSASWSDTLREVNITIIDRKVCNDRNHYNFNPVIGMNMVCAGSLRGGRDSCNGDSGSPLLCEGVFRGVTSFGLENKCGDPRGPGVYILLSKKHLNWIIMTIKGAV
Description: Figure 1 GzmA phosphonate and phosphinate inhibitors. A) Synthesis of phosphonate warhead I‐3. B) Synthesis of phosphosphinate warhead I‐4. C) Synthesis of Ac‐IGNR‐PO(OPh)2 1 and Ac‐IGNR‐PO(OPh)Ph 2. D) GzmA inhibition. hGzmA (50 nM) was incubated with inhibitor 1 or 2 (200 nM) and GzmA fluorogenic substrate (Ac‐Oic‐Gly‐Pro‐Arg‐PABA‐MU, 100 μM) for 15 h at 37 °C. Fluorescence at Ex/Em: 380/460 nm was recorded for residual GzmA proteolytic activity.
A. Granzyme A cleavage assay
Briefly, hGzmA (50 nM) was incubated with either inhibitor 1 or 2 (200 nM), and GzmA fluorogenic substrate […] (100 µM) in 50 mM Tris, 150 mM NaCl, 0.01% Triton X-100 (pH 8) for 15 hr at 37 °C. Recorded fluorescence at Ex/Em: 380/460 nm for residual GzmA […]
Cat. No. CRL-2570) and 4T1 (ATCC Cat. No. CRL-2539) cells were cultured in RPMI supplemented with 10% fetal bovine serum (FBS), 1% penicillin/streptomycin (PS), and 2 mM L-glutamine, while HEK293T and MDA-MB-231 cells (ATCC Cat. No. HTB-26) were cultured in DMEM supplemented likewise as described above. […] The supernatant was collected, and protein concentration was measured using a Pierce BCA protein assay. […]
C. In-gel fluorescence imaging […]
Conditions for probe/inhibitor treatment for in-gel fluorescence analysis: Inhibitors and probes were incubated with active (or pro-) GzmA followed by treatment with 4X SDS reducing sample buffer. […]

[1] = biological target: T2, recombinant human GzmA (hGzmA) (Homo sapiens, UniProt P12544); experiment: In-gel fluorescence labeling of recombinant active hGzmA; format: biochemical; details: hGzmA 100 nM preincubated with inhibitor 5 μM 2 h, then ABPs 3–5 50 nM 2 h, 37 °C
T2 construct: active, mature form; purchased Enzo Life Sciences ALX-201-118-C010
T2 sequence (P12544 29-262): T1 sequence (P12544 29-262)
Description: Figure 3 GzmA ABPs covalently and competitively label active human and mouse GzmA. […] Recombinant hGzmA (100 nM) was incubated with varying concentrations of each ABP at 37 °C. B) Competitive labeling of hGzmA. Recombinant hGzmA (100 nM) was preincubated with covalent inhibitors 1 or 2 (5 μM) for 2 h, followed by labeling with ABPs 3 –5 (50 nM) for 2 h at 37 °C. Note: Pro‐form of hGzmA (the first lane) is not effectively stained by SYPRO‐Ruby. C) Structure of qABP 6. D) Quenched natures of 5 and 6. […] F) Labeling of mGzmA (1 μM) with 5 and 6 (1 μM, 24 h, 37 °C). Protein samples were analyzed by SDS‐PAGE and in‐gel fluorescence scanning for Cy5 signal and SYPRO Ruby staining. […]
C. In-gel fluorescence imaging
For recombinant enzyme labeling, working solutions of hGzmA (purchased from R&D Systems, Cat. No. 2905-SE-010 for pro-from and Enzo Life Sciences, Cat. No.: ALX-201-118-C010 for active, mature form) were prepared by diluting a 12.6 µM stock in the following assay buffer: 50 […]
mM Tris, 100 mM NaCl, 5 mM CaCl2, 0.01% (v/v) Tween-20, pH 7.5. […]
In-gel fluorescence and
SYPRO-Ruby staining images were acquired on a Typhoon FLA9500 instrument, while western blot images were acquired on an AMHERST ImageQuant 800 instrument.
Conditions for probe/inhibitor treatment for in-gel fluorescence analysis: Inhibitors and probes were incubated with active (or pro-) GzmA followed by treatment with 4X SDS reducing sample buffer. Samples were then heated to 100 °C for 5 min, brought to room temperature, and centrifuged. 20 µL of each sample was loaded onto a 15% polyacrylamide gel, which was then subjected to electrophoresis followed by the acquisition of in-gel fluorescence images. GzmA labeling was confirmed by western blotting, while protein loading was confirmed with SYPRO-Ruby staining. Incubation conditions for each figure/experiment are described below:
Conditions for Figure 3A: For labeling comparison between 3, 4, and 5, 100 nM of human GzmA was incubated with various concentrations of each probe for 2 h at 37 °C. For time-dependent labeling, 50 nM of 5 was incubated with 100 nM of human GzmA at 37 °C for the specified durations. Final reaction volume for both was 20 µL.
Conditions for Figure 3B: 100 nM of human GzmA was incubated with DMSO or 5 µM of 1 or 2 for 2 h at 37 °C in Eppendorf tubes. 0.5 µL of a 2 µM solution of 3, 4, or 5 in DMSO was then spiked into the Eppendorf tube, yielding a final probe concentration of 50 nM. The solution was incubated for another 2 h at 37 °C. Final reaction volume was 20 µL.
Conditions for Figure 3E: 100 nM of human GzmA was incubated with various concentrations of 5 or 6, respectively, for 2 h at 37 °C. Final reaction volume was 20 µL.
Conditions for Figure 3F: 1 µM of mouse GzmA was incubated with 1 µM of 5 or 6, respectively, for 24 h at 37 °C. Final reaction volume was 20 µL.
Conditions for Figure 4A: 1 mg/mL of lysates was incubated with various concentrations of 5 or 6, respectively, for 1 h at 37 °C.
Conditions for Figure 4C: Various concentrations of probes 3-6 were incubated with 1x10^6 NK-92 cells for 2 h at 37 °C in a humidified incubator. Cells were centrifuged, washed with PBS (x2) and lysed with ~40 µL of ice-cold RIPA buffer. Lysates were collected, protein concentration was measured with PIERCE BCA protein assay and samples were analyzed with in-gel fluorescence and GzmA western blotting. […]
All flow cytometry data were collected on BD LSRFortessa and FACSymphony A5 Cell Analyzers and analyzed with FlowJo software. Briefly, cells were processed according to the intended protocols for each experiment. Thereafter, cells were pelleted, fixed in the dark for 20 min at room temperature (Fixation buffer: BioLegend #420801), and pelleted again by centrifugation. Fixed cells were then resuspended in 1x intracellular staining perm wash buffer (BioLegend #421002), followed by centrifugation two times. Fixed/Permeabilized cells were then resuspended in […]

| SMILES | Inhibition of GzmA‐mediated cleavage of a fluorogenic substrate (residual GzmA proteolytic activity) (hGzmA) | Blocking of ABP labeling of hGzmA by inhibitor pretreatment [1] |
| --- | --- | --- |
| CC[C@H](C)[C@H](NC(C)=O)C(=O)NCC(=O)N[C@@H](CC(N)=O)C(=O)NC(CCCNC(=N)N)P(=O)(Oc1ccccc1)Oc1ccccc1 (stereo partly shown) [compound 1, Ac‐IGNR‐PO(OPh)2] | comparable potency | competitively blocked |
| CC[C@H](C)[C@H](NC(C)=O)C(=O)NCC(=O)N[C@@H](CC(N)=O)C(=O)NC(CCCNC(=N)N)P(=O)(Oc1ccccc1)c1ccccc1 (stereo partly shown) [compound 2, Ac‐IGNR‐PO(OPh)Ph] | comparable potency | competitively blocked |
